Each compound was assayed against T1, FLT3-D835Y mutant kinase (Homo sapiens, UniProt P36888, D835Y) (assay: FLT3-D835Y mutant kinase assay (AlphaScreen)). Details: read-out: Ranking of IC50 values, FLT3-D835Y.
T1 construct: purchased SignalChem
T1 sequence (P36888 27-993 D835Y): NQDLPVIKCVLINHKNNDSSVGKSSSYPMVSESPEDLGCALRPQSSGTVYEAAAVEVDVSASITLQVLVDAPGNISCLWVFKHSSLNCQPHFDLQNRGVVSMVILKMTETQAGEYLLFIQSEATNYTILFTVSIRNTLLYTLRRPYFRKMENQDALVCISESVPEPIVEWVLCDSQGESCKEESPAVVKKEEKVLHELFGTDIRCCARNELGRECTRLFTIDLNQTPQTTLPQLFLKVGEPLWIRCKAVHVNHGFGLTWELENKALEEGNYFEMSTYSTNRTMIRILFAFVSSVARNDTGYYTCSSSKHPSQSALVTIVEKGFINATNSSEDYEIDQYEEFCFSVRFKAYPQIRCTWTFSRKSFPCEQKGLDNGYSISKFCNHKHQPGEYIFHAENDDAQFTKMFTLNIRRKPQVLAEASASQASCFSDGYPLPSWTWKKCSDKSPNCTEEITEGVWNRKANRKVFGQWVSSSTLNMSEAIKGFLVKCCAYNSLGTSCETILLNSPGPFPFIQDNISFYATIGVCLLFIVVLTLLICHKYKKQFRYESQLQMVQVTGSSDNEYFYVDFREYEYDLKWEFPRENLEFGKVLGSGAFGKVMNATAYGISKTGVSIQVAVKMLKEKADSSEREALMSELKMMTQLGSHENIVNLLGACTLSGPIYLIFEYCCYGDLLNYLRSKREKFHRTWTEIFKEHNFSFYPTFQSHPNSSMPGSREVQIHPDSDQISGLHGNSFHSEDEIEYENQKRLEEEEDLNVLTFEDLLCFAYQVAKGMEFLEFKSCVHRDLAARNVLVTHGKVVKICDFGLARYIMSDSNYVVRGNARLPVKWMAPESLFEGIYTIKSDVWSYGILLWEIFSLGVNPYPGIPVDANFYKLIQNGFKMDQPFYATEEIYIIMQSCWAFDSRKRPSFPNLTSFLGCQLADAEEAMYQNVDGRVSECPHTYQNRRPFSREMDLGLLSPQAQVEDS
Assay type: biochemical
Protocol: Inhibition of FLT3-D835Y mutant kinase activity by a test compound disclosed herein was estimated by AlphaScreen (PerkinElmer). Standard assay conditions were 1 ng of recombinant FLT3-D835Y mutant kinase (SignalChem) with 6 ng Biotin-conjugated Poly-(Glu 4: Tyr 1) (Cisbio) in the assay buffer (10 μM ATP, 10 mM MOPs, pH7.0, 0.21 mM EDTA, 0.5% glycerol, 1 mg/mL BSA, 0.01% 2-mercaptoethanol, 0.001% Brij35, 10 mM MgCl2) in a final volume of 25 μL. Reactions were incubated at 30° C. for 30 min and stopped by adding 5 μL of 50 mM EDTA. Analysis of resulting product using an AlphaScreen kit and counted with Enspire Alpha (PerkinElmer). […] The IC50 values of inhibitors were determined after carrying out assays with each compound at serially diluted concentrations in duplication. The results were analyzed using linear regression software (GraphPad Prism 5; GraphPad Software Inc.)

Row | Structure (SMILES) | IC50 [nM]
1 | CC(c1ccc(-c2cc3c(s2)Cc2c(-c4ccc5cnn(C)c5c4)n[nH]c2-3)cc1)N1CCOCC1 (stereo not drawn) [Compound 20, 4-(1-(4-(3-(1-methyl-1H-indazol-6-yl)-1,4-dihydro-thieno[2′,3′:4,5]cyclopenta [1,2-c]pyrazol-6-yl)phenyl)ethyl)morpholine] | 1 to 10
2 | Cn1ncc2ccc(-c3n[nH]c4c3Cc3sc(C5=CCN(C(=O)N6CCOCC6)CC5)cc3-4)cc21 [Compound 57, (4-(3-(1-methyl-1H-indazol-6-yl)-1,4-dihydro-thieno[2′,3′:4,5]cyclopenta [1,2-c]pyrazol-6-yl)-3,6-dihydropyridin-1(2H)-yl) (morpholino)methanone] | < 1
3 | Cn1ncc2ccc(-c3n[nH]c4c3Cc3sc(-c5cccc(OCCN6CCOCC6)c5)cc3-4)cc21 [Compound 70, 4-(2-(3-(3-(1-methyl-1H-indazol-6-yl)-1,4-dihydro-thieno[2′,3′:4,5]cyclopenta [1,2-c]pyrazol-6-yl)phenoxy)ethyl)morpholine] | < 1
4 | C[C@@H]1CN(Cc2ccc(-c3cc4c(s3)Cc3c(-c5ccc6cnn(C)c6c5)n[nH]c3-4)cc2)C[C@H](C)O1 [Compound 54, (2S,6R)-2,6-dimethyl-4-(4-(3-(1-methyl-1H-indazol-6-yl)-1,4-dihydro-thieno[2′,3′:4,5]cyclopenta [1,2-c]pyrazol-6-yl)benzyl)morpholine] | < 1
5 | Cn1ncc2ccc(-c3n[nH]c4c3Cc3sc(-c5cccc(C(=O)N6CCOCC6)c5)cc3-4)cc21 [Compound 37, (3-(3-(1-methyl-1H-indazol-6-yl)-1,4-dihydro-thieno[2′,3′:4,5]cyclopenta [1,2-c]pyrazol-6-yl)phenyl)(morpholino) methanone] | 1 to 10
6 | Cn1ncc2ccc(-c3n[nH]c4c3Cc3sc(-c5ccc(CN6CCNC(=O)C6)cc5)cc3-4)cc21 [Compound 63, 4-(4-(3-(1-methyl-1H-indazol-6-yl)-1,4-dihydro-thieno[2′,3′:4,5]cyclopenta [1,2-c]pyrazol-6-yl)benzyl)piperazin-2-one] | 1 to 10
7 | C[C@@H]1CN(Cc2ccc(-c3cc4c(s3)Cc3c(-c5ccc6cn[nH]c6c5)n[nH]c3-4)cn2)C[C@H](C)O1 [Compound 16, (2R,6S)-4-((5-(3-(1H-indazol-6-yl)-1,4-dihydro-thieno[2′,3′:4,5]cyclopenta [1,2-c]pyrazol-6-yl)pyridin-2-yl)methyl)-2,6-dimethylmorpholine] | < 1
8 | Cn1ncc2ccc(-c3n[nH]c4c3Cc3sc(-c5ccc(CN6CCC6)cc5)cc3-4)cc21 [Compound 103, 6-(4-(azetidin-1-ylmethyl)phenyl)-3-(1-methyl-1H-indazol-6-yl)-1,4-dihydro-thieno[2′,3′:4,5]cyclopenta [1,2-c]pyrazole] | < 1
9 | Cn1ncc2ccc(-c3n[nH]c4c3Cc3sc(-c5ccc(CCN6CCOCC6)cc5)cc3-4)cc21 [Compound 22, 4-(4-(3-(1-methyl-1H-indazol-6-yl)-1,4-dihydro-thieno[2′,3′:4,5]cyclopenta [1,2-c]pyrazol-6-yl)phenethyl)morpholine] | 1 to 10
10 | Cn1ncc2ccc(-c3n[nH]c4c3Cc3sc(-c5cc(F)c(CN6CCOCC6)c(F)c5)cc3-4)cc21 [Compound 53, 4-(2,6-difluoro-4-(3-(1-methyl-1H-indazol-6-yl)-1,4-dihydrothieno [2′,3′:4,5]cyclopenta [1,2-c]pyrazol-6-yl)benzyl)morpholine] | 1 to 10
11 | CN(C)c1ccc(-c2cc3c(s2)Cc2c(-c4ccc5cnn(C)c5c4)n[nH]c2-3)cn1 [Compound 5, N,N-dimethyl-5-(3-(1-methyl-1H-indazol-6-yl)-1,4-dihydrothieno [2′,3′:4,5]cyclopenta[1,2-c]pyrazol-6-yl)pyridin-2-amine] | 1 to 10

Other lines, results leading:

Row | IC50 [nM] | Structure (SMILES)
12 | < 1 | CN(C)S(=O)(=O)c1ccc(-c2cc3c(s2)Cc2c(-c4ccc5cnn(C)c5c4)n[nH]c2-3)cc1 [Compound 50, N,N-dimethyl-4-(3-(1-methyl-1H-indazol-6-yl)-1,4-dihydrothieno [2′,3′:4,5]cyclopenta [1,2-c]pyrazol-6-yl) benzenesulfonamide]
13 | 1 to 10 | C[C@@H]1CN(C(=O)c2ccc(-c3cc4c(s3)Cc3c(-c5ccc6cnn(C)c6c5)n[nH]c3-4)cc2)C[C@H](C)O1 [Compound 19, ((2S,6R)-2,6-dimethyl-morpholino)(4-(3-(1-methyl-1H-indazol-6-yl)-1,4-dihydrothieno[2′,3′:4,5]cyclopenta[1,2-c]pyrazol-6-yl)phenyl)methanone]
14 | < 1 | Cn1ncc2ccc(-c3n[nH]c4c3Cc3sc(-c5ccc(CN6CCCC6)cc5)cc3-4)cc21 [Compound 99, 3-(1-methyl-1H-indazol-6-yl)-6-(4-(pyrrolidin-1-ylmethyl)phenyl)-1,4-dihydrothieno[2′,3′:4,5] cyclopenta[1,2-c]pyrazole]
15 | < 1 | Cn1ncc2ccc(-c3n[nH]c4c3Cc3sc(-c5csc(C(=O)N6CCOCC6)c5)cc3-4)cc21 [Compound 48, (4-(3-(1-methyl-1H-indazol-6-yl)-1,4-dihydro-thieno[2′,3′:4,5]cyclopenta [1,2-c]pyrazol-6-yl)thiophen-2-yl) (morpholino)methanone]
16 | < 1 | Cn1ncc2ccc(-c3n[nH]c4c3Cc3sc(-c5ccc(CN6CCCCC6)cc5)cc3-4)cc21 [Compound 100, 3-(1-methyl-1H-indazol-6-yl)-6-(4-(piperidin-1-ylmethyl)phenyl)-1,4-dihydrothieno[2′,3′:4,5] cyclopenta[1,2-c]pyrazole]
17 | 1 to 10 | Cn1ncc2ccc(-c3n[nH]c4c3Cc3sc(-c5ccc(CN6CC(F)(F)C6)cc5)cc3-4)cc21 [Compound 104, 6-(4-((3,3-difluoroazeti-din-1-yl)methyl)phenyl)-3-(1-methyl-1H-indazol-6-yl)-1,4-dihydrothieno [2′,3′:4,5]cyclopenta [1,2-c]pyrazole]
18 | 1 to 10 | Cn1ncc2ccc(-c3n[nH]c4c3Cc3sc(-c5cccc(CN6CCOCC6)c5)cc3-4)cc21 [Compound 13, 4-(3-(3-(1-methyl-1H-indazol-6-yl)-1,4-dihydro-thieno[2′,3′:4,5]cyclopenta [1,2-c]pyrazol-6-yl)benzyl) morpholine]
19 | < 1 | CN1CCN(C(=O)c2ccc(-c3cc4c(s3)Cc3c(-c5ccc6cnn(C)c6c5)n[nH]c3-4)cc2)CC1 [Compound 15, (4-(3-(1-methyl-1H-indazol-6-yl)-1,4-dihydrothieno[2′,3′:4,5]cyclopenta[1,2-c]pyrazol-6-yl)phenyl)(4-methyl-piperazin-1-yl)methanone]
20 | 1 to 10 | c1cc(CN2CCOCC2)ncc1-c1cc2c(s1)Cc1c(-c3ccc4cn[nH]c4c3)n[nH]c1-2 [Compound 18, 4-((5-(3-(1H-indazol-6-yl)-1,4-dihydrothieno[2′,3′:4,5]cyclopenta[1,2-c]pyrazol-6-yl)pyridin-2-yl)methyl) morpholine]
21 | < 1 | COc1cc(CN2CCOCC2)ccc1-c1cc2c(s1)Cc1c(-c3ccc4cnn(C)c4c3)n[nH]c1-2 [Compound 29, 4-(3-methoxy-4-(3-(1-methyl-1H-indazol-6-yl)-1,4-dihydrothieno [2′,3′:4,5]cyclopenta[1,2-c]pyrazol-6-yl)benzyl) morpholine]
22 | < 1 | Cn1ncc2ccc(-c3n[nH]c4c3Cc3sc(-c5ccc(OCCN6CCOCC6)cc5)cc3-4)cc21 [Compound 69, 4-(2-(4-(3-(1-methyl-1H-indazol-6-yl)-1,4-dihydro-thieno[2′,3′:4,5]cyclopenta [1,2-c]pyrazol-6-yl)phenoxy)ethyl)morpholine]
23 | < 1 | Cn1ncc2ccc(-c3n[nH]c4c3Cc3sc(-c5ccc(CN6CCCOCC6)cc5)cc3-4)cc21 [Compound 97, 4-(4-(3-(1-methyl-1H-indazol-6-yl)-1,4-dihydro-thieno[2′,3′:4,5]cyclopenta [1,2-c]pyrazol-6-yl)benzyl)-1,4-oxazepane]
24 | < 1 | C[C@@H]1COCCN1Cc1ccc(-c2cc3c(s2)Cc2c(-c4ccc5cnn(C)c5c4)n[nH]c2-3)cc1 [Compound 74, (R)-3-methyl-4-(4-(3-(1-methyl-1H-indazol-6-yl)-1,4-dihydrothieno [2′,3′:4,5]cyclopenta [1,2-c]pyrazol-6-yl)benzyl)morpholine]

— US12448394B2, “Heterocyclic pyrazole derivatives as type III receptor tyrosine kinase inhibitors” (DEVELOPMENT CENTER FOR BIOTECHNOLOGY, priority 2019, dated 2025)
